Data from EP0483271B1, “PEPTIDES CONTAINING DIAMINO-GLYCOLS AS TRANSITION-STATE MIMICS” (THE UPJOHN COMPANY, priority 1989, dated 1993).
Structures can show the parent of a compound that is named as a salt.

System: renin
Experiment: renin inhibitory activity, in vitro test (as described in US-A-4880781 and EP-A-0 173 481, pages 103-105)
Format: biochemical
Settings: at 10⁻⁸M; printed under the heading IC₅₀(M)
Protocol: In the examples below, the renin inhibitory activity of the compounds of the present invention (IC₅₀'s) are determined using the in vitro test described in US-A-4880 781 (U.S. patent application, Serial No. 07/147,073, filed 20 January 1988), and in EP-A-0 173 481, published 5 March 1986, pages 103-105, which are hereby incorporarted by reference.

**Q.** Which inhibition does the source give for COc1ccc(C[C@H](NC(=O)[C@@H]2CCCN2C(=O)CC[C@H](N)C(=O)O)C(=O)N[C@@H](Cc2c[nH]cn2)C(=O)N[C@@H](CC2CCCCC2)[C@@H](O)[C@@H](O)CC(C)(C)N)cc1 [Example 7, L-Arabino-heptitol6-amino-1,2,5,6,7-pentadeoxy-1-cyclohexyl-2-[[N-[N-(1-L-γ-glutamyl-L-prolyl)-O-methyl-L-tyrosyl]-L-histidyl]-amino]-6-methyl-, tris(trisluoroacetate) salt] here?
**A.** The inhibition was 34%.
